Assay results as given in paper PMC8878317, “Chemogenomics identifies acetyl-coenzyme A synthetase as a target for malaria treatment and prevention” (Cell Chemical Biology, 2022).
Like-named read-outs stand apart in the source and are kept apart here.

What was measured:
[1] = test system: HepG2 cells; assay: HepG2 cytotoxicity; format: cell-based; conditions: Homo sapiens, mammalian cell cytotoxicity
[2] = test system: P. falciparum control YFP cKD line; assay: cKD compound susceptibility assay, control YFP cKD line; format: cell-based; conditions: Plasmodium falciparum
Procedure: Synchronous ring-stage, aptamer-regulated PfAcAS and control parasite lines were resuspended in varying aTc concentrations (high = 50 nM, low = 1 nM, and no aTc) and distributed into the drug plate. DMSO carrier and chloroquine (200 nM) wells served as positive and negative controls.

[3] = test system: P. falciparum NF54-PfACS11-cKD; assay: cKD compound susceptibility assay, PfACS11 cKD line; format: cell-based; conditions: 50 nM aTc vs no aTc
[4] = target: T1, HsAcAS WT (Homo sapiens, UniProt Q9NR19); assay: HsAcAS Rapid-Fire QQQ mass spectrometry assay; format: biochemical; conditions: for IC50: approximate Km for each substrate, read-out: IC50 (μM), AcAS HsWT
T1 construct: made in house; host or cells: Expi293 cells (pCDNA 3.1, transient transfection)
T1 sequence (Q9NR19 whole entry): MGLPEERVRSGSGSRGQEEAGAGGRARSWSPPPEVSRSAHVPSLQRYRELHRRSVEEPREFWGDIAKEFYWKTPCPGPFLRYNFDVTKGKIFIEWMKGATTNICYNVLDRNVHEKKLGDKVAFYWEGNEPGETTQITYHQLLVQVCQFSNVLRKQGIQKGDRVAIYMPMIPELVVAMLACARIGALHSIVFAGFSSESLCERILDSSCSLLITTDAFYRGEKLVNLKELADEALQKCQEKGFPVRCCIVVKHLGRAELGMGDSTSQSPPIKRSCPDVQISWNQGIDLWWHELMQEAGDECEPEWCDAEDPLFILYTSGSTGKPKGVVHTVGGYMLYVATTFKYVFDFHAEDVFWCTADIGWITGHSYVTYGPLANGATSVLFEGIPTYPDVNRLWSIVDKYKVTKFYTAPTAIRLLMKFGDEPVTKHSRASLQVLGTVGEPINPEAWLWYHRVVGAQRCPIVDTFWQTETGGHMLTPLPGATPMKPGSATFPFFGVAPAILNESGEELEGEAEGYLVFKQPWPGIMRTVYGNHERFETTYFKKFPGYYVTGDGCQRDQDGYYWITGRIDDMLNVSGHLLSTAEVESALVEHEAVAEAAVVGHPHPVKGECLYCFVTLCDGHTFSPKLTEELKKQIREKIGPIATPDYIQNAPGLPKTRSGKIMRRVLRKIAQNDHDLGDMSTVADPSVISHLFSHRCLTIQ
Procedure: The human form of acetyl-CoA synthetase was assayed in 100 mM HEPES (pH7.4), 100 mM NaCl, 250 mM KCl, 50 mM MgCl2, 1 mM DTT, 0.005% NP40, 400 μM ATP, 70 μM acetate, 40 μM CoA and 2 nM recombinant HsAcAS. Assay ready plates containing different concentrations of inhibitor were prepared using an Echo 550 acoustic dispenser (Labcyte Inc.), dispensing 150 nL of compound per well. Assays were conducted in a total volume of 15 μL for 30 min at room temperature before being quenched with the addition of 85 μL 1% formic acid containing 0.5 μg/mL n-Propionyl coenzyme A (Sigma P5397) as an internal standard. Reaction products were detected using a RapidFire 365 system (Agilent, Santa Clara, CA) coupled with a triple quadrupole mass spectrometer 6740 (Agilent).
The sipper was washed to minimize carryover with 0.1% TFA in deionized water followed by 0.1% TFA in acetonitrile/deionized water (95%/5%, v/v). The sipper was washed to minimize carryover with deionized water followed by acetonitrile. Aspiration time, load/wash time, elution time, and re-equilibration time were set to 600, 3000, 5000, and 500 ms, respectively, with a cycle time of approximately 10 s. The triple-quadrupole mass spectrometer with electrospray ion source was operated in positive multiple reaction monitoring (MRM) mode. The detailed setting for the mass spectrometer parameters was as follows: capillary voltage, 3000 V; gas temperature, 350°C; gas flow, 7 L/min; nebulizer, 40 psi; sheath gas temperature, 300°C′ sheath gas flow, 11 L/min; and nozzle voltage, 1500 V. The MRM transitions for acetyl-CoA as a reaction product were set as 810.1/303.1 & 810.1/428.1 (quantifier & qualifier with dwell time of 50 ms, 100V fragmentor, and collision energies of 30 & 28 eV respectively) and for n-propionyl-CoA as an internal standard as 824.2/317.2 & 824.2/428.0 (quantifier & qualifier with dwell time of 50 ms, 100V fragmentor, and collision energies of 32 & 26 eV respectively). The mass resolution window for both parental and daughter ions was set at as a unit (0.7 Da). Peak areas were integrated, and area ratios of acetyl-CoA to the internal standard (n-propionyl CoA) were used for quantitation. Data were converted to % inhibition relative to the uninhibited enzyme control and fitted to Equation 3.

[5] = read-out: control cKD EC50 ± SD (nM) (0nM aTc)
[6] = read-out: control cKD EC50 ± SD (nM) (50nM aTc)

Row | SMILES | EC50 [1] [nM] | EC50 [2, 5] [nM] | EC50 [2, 6] [nM] | effect of conditional knockdown of PfACS11 on parasite sensitivity [3] | IC50 [4] [µM] | Hill, AcAS HsWT [4]
1 | CCN(CC)S(=O)(=O)c1ccc(Cl)c(C(=O)Nc2ccc3nc(C)sc3c2)c1 [MMV019721] | > 50000 | 200 ± 61 | 210 ± 80 | did not increase parasite sensitivity | > 100 | 
2 | O=C(NNC(=O)c1csnn1)c1ccc(Cl)cc1 [MMV084978] | > 50000 | 240 ± 29 | 230 ± 23 | did not increase parasite sensitivity | 18 ± 1.9 | 0.85 ± 0.07
